Results from US20240270762A1, “PENICILLIN-BINDING PROTEIN INHIBITORS” (priority 2021, published 2024).
≈ marks a conversion by molar mass, not a printed value.

How the values were obtained:
[1] = target: T1, PBP3 from Escherichia coli (K-12) (Escherichia coli, UniProt P0AD68); assay: Bocillin-FL fluorescence polarization competition binding, E. coli PBP3
T1 construct: made in house
Outline: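 Purified PBP was preincubated with inhibitor (E. coli PBP3 1.5 μM, 30 min; P. aeruginosa PBP3 0.75 μM, A. baumannii PBP3 0.2 μM and PBP1a 1 μM, 15 min), then Bocillin-FL (0.1 μM; 0.05 μM for PBP1a) added and FP read up to 60 min. EC50 = 50% loss of bound probe.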

[2] = target: T2, A. baumannii PBP1a (Acinetobacter baumannii, UniProt A0ABX6CK30); assay: Bocillin-FL competition binding via gel filtration, A. baumannii PBP1a; details: competition binding assay using Bocillin-FL via gel filtration; read-out: A. baumannii PBP1a Potency
T2 sequence (A0ABX6CK30 1-851): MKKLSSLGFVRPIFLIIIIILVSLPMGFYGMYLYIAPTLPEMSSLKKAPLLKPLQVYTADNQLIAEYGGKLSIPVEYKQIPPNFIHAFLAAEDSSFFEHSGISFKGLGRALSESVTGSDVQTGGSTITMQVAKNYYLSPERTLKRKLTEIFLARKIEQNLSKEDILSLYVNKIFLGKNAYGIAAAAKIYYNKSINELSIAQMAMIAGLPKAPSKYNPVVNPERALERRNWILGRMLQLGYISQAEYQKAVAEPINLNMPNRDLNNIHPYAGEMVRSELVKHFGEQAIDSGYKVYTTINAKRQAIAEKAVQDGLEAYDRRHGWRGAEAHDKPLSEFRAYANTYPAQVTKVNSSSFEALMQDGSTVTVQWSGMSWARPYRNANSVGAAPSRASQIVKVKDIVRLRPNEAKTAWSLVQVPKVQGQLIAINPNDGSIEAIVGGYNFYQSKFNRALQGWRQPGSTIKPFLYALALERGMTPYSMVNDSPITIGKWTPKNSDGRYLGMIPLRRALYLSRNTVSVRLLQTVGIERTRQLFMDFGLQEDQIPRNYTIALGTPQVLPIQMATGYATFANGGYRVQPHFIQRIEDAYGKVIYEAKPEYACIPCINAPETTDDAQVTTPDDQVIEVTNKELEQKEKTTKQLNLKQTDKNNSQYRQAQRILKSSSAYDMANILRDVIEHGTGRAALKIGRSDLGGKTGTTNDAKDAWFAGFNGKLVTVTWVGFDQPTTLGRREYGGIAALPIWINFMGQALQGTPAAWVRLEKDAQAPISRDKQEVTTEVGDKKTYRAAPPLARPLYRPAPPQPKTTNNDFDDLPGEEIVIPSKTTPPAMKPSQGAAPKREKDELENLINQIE
Outline: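 Competitive equilibrium binding with Bocillin-FL reporter: PBP pre-incubated with inhibitor dilutions, Bocillin-FL added, 15 min incubation. Labelled enzyme isolated by size-exclusion spin plates, fluorescence measured; EC50 obtained by fitting bound fraction against inhibitor concentration with a Hill-coefficient model.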

[3] = tested on: P. aeruginosa ATCC 27853; assay: microbe, parasite or virus in culture; format: cell-based; details: Pseudomonas aeruginosa, ATCC27853, read-out: Minimum inhibitory concentration, P. aeruginosa ATCC 27853
[4] = tested on: P. aeruginosa CDC-0054; assay: microbe, parasite or virus in culture; format: cell-based; details: Pseudomonas aeruginosa, CDC0054, read-out: Minimum inhibitory concentration, P. aeruginosa CDC-0054
[5] = tested on: N. gonorrhoeae FA1090; assay: Liquid broth MIC in Fastidious broth; details: Neisseria gonorrhoeae, FA1090, read-out: Minimum Inhibitory Concentration, FA 1090
[6] = tested on: N. gonorrhoeae WHO Z; assay: Liquid broth MIC in Fastidious broth; details: Neisseria gonorrhoeae, read-out: Minimum Inhibitory Concentration, WHO Z

T1 sequence (P0AD68 1-577): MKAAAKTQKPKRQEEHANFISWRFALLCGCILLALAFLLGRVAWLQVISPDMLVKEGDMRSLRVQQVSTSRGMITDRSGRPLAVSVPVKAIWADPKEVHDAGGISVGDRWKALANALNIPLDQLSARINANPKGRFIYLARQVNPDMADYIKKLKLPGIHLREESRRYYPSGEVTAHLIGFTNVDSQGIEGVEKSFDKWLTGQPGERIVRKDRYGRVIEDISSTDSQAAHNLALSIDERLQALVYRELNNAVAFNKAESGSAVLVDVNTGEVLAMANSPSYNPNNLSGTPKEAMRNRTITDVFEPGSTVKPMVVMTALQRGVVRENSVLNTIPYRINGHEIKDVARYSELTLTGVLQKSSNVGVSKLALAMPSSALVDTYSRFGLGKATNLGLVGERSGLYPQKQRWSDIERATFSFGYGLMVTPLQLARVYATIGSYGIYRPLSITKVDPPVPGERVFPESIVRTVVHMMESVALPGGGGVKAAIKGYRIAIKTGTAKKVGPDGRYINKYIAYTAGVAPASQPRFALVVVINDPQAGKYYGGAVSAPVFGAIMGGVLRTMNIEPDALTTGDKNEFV

Row | Structure (SMILES) | EC50 [1] [µM] | EC50 [2] [µM] | MIC [3] [µg/mL] | MIC [4] [µg/mL] | MIC [5] [µg/mL] | MIC [6] [µg/mL]
1 | O=C(NCCCN1CCN(C(=O)NC(C(=O)N[C@H]2Cc3ccc(F)c(C(=O)O)c3OB2O)c2cc(F)c(O)c(O)c2Cl)C(=O)C1=O)c1c(F)ccc(O)c1Cl (stereo partly drawn) [Example 414, (3R)-3-(2-(2-chloro-5-fluoro-3,4-dihydroxyphenyl)-2-(4-(3-(2-chloro-6-fluoro-3-hydroxybenzamido)propyl)-2,3-dioxopiperazine-1-carboxamido)acetamido)-7-fluoro-2-hydroxy-3,4-dihydro-2H-benzo[e][1,2]oxaborinine-8-carboxylic acid] | < 10 | < 10 | < 1 | < 1 | – | –
2 | O=C(NCCCN1CCN(C(=O)NC(C(=O)N[C@H]2Cc3ccc(F)c(C(=O)O)c3OB2O)c2cc(F)c(O)c(O)c2Cl)C(=O)C1=O)c1cc(O)ccc1F (stereo partly drawn) [Example 407, (3R)-3-(2-(2-chloro-5-fluoro-3,4-dihydroxyphenyl)-2-(4-(3-(2-fluoro-5-hydroxybenzamido)propyl)-2,3-dioxopiperazine-1-carboxamido)acetamido)-7-fluoro-2-hydroxy-3,4-dihydro-2H-benzo[e][1,2]oxaborinine-8-carboxylic acid] | < 10 | < 10 | < 1 | < 1 | – | –
3 | O=C(NCCCN1CCN(C(=O)NC(C(=O)N[C@H]2Cc3ccc(F)c(C(=O)O)c3OB2O)c2cc(F)c(O)c(O)c2Cl)C(=O)C1=O)c1c(F)cncc1F (stereo partly drawn) [Example 402, (3R)-3-(2-(2-chloro-5-fluoro-3,4-dihydroxyphenyl)-2-(4-(3-(3,5-difluoroisonicotinamido)propyl)-2,3-dioxopiperazine-1-carboxamido)acetamido)-7-fluoro-2-hydroxy-3,4-dihydro-2H-benzo[e][1,2]oxaborinine-8-carboxylic acid] | < 10 | < 10 | 2 to 4 (≈ 2.56 to 5.12 µM) | < 1 | – | –
4 | O=C(O)c1c(F)ccc2c1OB(O)[C@@H](NC(=O)C(NC(=O)N1CCN(C3CCN(C(=O)c4cncc(O)c4)CC3)C(=O)C1=O)c1cc(F)c(O)c(O)c1Cl)C2 (stereo partly drawn) [Example 425, (3R)-3-(2-(2-chloro-5-fluoro-3,4-dihydroxyphenyl)-2-(4-(1-(5-hydroxynicotinoyl)piperidin-4-yl)-2,3-dioxopiperazine-1-carboxamido)acetamido)-7-fluoro-2-hydroxy-3,4-dihydro-2H-benzo[e][1,2]oxaborinine-8-carboxylic acid] | < 10 | 10 to 50 | < 1 | < 1 | – | –
5 | O=C(NCCCN1CCN(C(=O)NC(C(=O)N[C@H]2Cc3ccc(F)c(C(=O)O)c3OB2O)c2cc(F)c(O)c(O)c2Cl)C(=O)C1=O)c1ccncc1F (stereo partly drawn) [Example 400, (3R)-3-(2-(2-chloro-5-fluoro-3,4-dihydroxyphenyl)-2-(4-(3-(3-fluoroisonicotinamido)propyl)-2,3-dioxopiperazine-1-carboxamido)acetamido)-7-fluoro-2-hydroxy-3,4-dihydro-2H-benzo[e][1,2]oxaborinine-8-carboxylic acid] | < 10 | 10 to 50 | 2 to 4 (≈ 2.62 to 5.24 µM) | < 1 | – | –
6 | O=C(O)c1c(F)ccc2c1OB(O)[C@@H](NC(=O)C(NC(=O)N1CCN(CC3CCN(C(=O)Nc4cccc(O)c4)CC3)C(=O)C1=O)c1cc(F)c(O)c(O)c1Cl)C2 (stereo partly drawn) [Example 477, (3R)-3-(2-(2-chloro-5-fluoro-3,4-dihydroxyphenyl)-2-(4-((1-((3-hydroxyphenyl)carbamoyl)piperidin-4-yl)methyl)-2,3-dioxopiperazine-1-carboxamido)acetamido)-7-fluoro-2-hydroxy-3,4-dihydro-2H-benzo[e][1,2]oxaborinine-8-carboxylic acid] | – | 10 to 50 | < 1 | < 1 | – | –
7 | O=C(NCCCN1CCN(C(=O)NC(C(=O)N[C@H]2Cc3ccc(F)c(C(=O)O)c3OB2O)c2cc(F)c(O)c(O)c2Cl)C(=O)C1=O)c1ccc(F)c(O)c1Cl (stereo partly drawn) [Example 412, (3R)-3-(2-(4-(3-(2-chloro-4-fluoro-3-hydroxybenzamido)propyl)-2,3-dioxopiperazine-1-carboxamido)-2-(2-chloro-5-fluoro-3,4-dihydroxyphenyl)acetamido)-7-fluoro-2-hydroxy-3,4-dihydro-2H-benzo[e][1,2]oxaborinine-8-carboxylic acid] | < 10 | < 10 | < 1 | < 1 | – | –
8 | O=C(O)c1c(F)ccc2c1OB(O)[C@@H](NC(=O)C(NC(=O)N1CCN(CC3CCN(C(=O)c4cccc(O)c4)CC3)C(=O)C1=O)c1cc(F)c(O)c(O)c1Cl)C2 (stereo partly drawn) [Example 475, (3R)-3-(2-(2-chloro-5-fluoro-3,4-dihydroxyphenyl)-2-(4-((1-(3-hydroxybenzoyl)piperidin-4-yl)methyl)-2,3-dioxopiperazine-1-carboxamido)acetamido)-7-fluoro-2-hydroxy-3,4-dihydro-2H-benzo[e][1,2]oxaborinine-8-carboxylic acid] | – | 10 to 50 | 2 to 4 (≈ 2.5 to 5 µM) | < 1 | – | –
9 | O=C(O)c1c(F)ccc2c1OB(O)[C@@H](NC(=O)C(NC(=O)N1CCN(C3CCN(C(=O)c4ccc(O)cc4O)CC3)C(=O)C1=O)c1cc(F)c(O)c(O)c1Cl)C2 (stereo partly drawn) [Example 476, (3R)-3-(2-(2-chloro-5-fluoro-3,4-dihydroxyphenyl)-2-(4-(1-(2,4-dihydroxybenzoyl)piperidin-4-yl)-2,3-dioxopiperazine-1-carboxamido)acetamido)-7-fluoro-2-hydroxy-3,4-dihydro-2H-benzo[e][1,2]oxaborinine-8-carboxylic acid] | – | 10 to 50 | < 1 | < 1 | – | –
10 | O=C(O)c1c(F)ccc2c1OB(O)[C@@H](NC(=O)[C@H](NC(=O)N1CCN(C3CCN(C(=O)Nc4ccc(O)cc4)CC3)C1=O)c1cc(F)c(O)c(O)c1Cl)C2 (single isomer, unassigned) [Example 468] | – | < 10 | < 1 | < 1 | – | –
11 | O=C(O)c1c(F)ccc2c1OB(O)[C@@H](NC(=O)C(NC(=O)N1CCN(C3CCN(C(=O)Nc4cccc(O)c4F)CC3)C(=O)C1=O)c1cc(F)c(O)c(O)c1Cl)C2 (stereo partly drawn) [Example 478, (3R)-3-(2-(2-chloro-5-fluoro-3,4-dihydroxyphenyl)-2-(4-(1-((2-fluoro-3-hydroxyphenyl)carbamoyl)piperidin-4-yl)-2,3-dioxopiperazine-1-carboxamido)acetamido)-7-fluoro-2-hydroxy-3,4-dihydro-2H-benzo[e][1,2]oxaborinine-8-carboxylic acid] | – | 10 to 50 | 2 to 4 (≈ 2.44 to 4.88 µM) | 2 to 4 (≈ 2.44 to 4.88 µM) | – | –
12 | O=C(O)c1c(F)ccc2c1OB(O)[C@@H](NC(=O)C(NC(=O)N1CCN(C3CCN(C(=O)Cc4cccc(O)c4)CC3)C(=O)C1=O)c1cc(F)c(O)c(O)c1Cl)C2 (stereo partly drawn) [Example 474, (3R)-3-(2-(2-chloro-5-fluoro-3,4-dihydroxyphenyl)-2-(4-(1-(2-(3-hydroxyphenyl)acetyl)piperidin-4-yl)-2,3-dioxopiperazine-1-carboxamido)acetamido)-7-fluoro-2-hydroxy-3,4-dihydro-2H-benzo[e][1,2]oxaborinine-8-carboxylic acid] | – | 10 to 50 | 2 to 4 (≈ 2.5 to 5 µM) | < 1 | – | –
13 | O=C(NCCCN1CCN(C(=O)NC(C(=O)N[C@H]2Cc3ccc(F)c(C(=O)O)c3OB2O)c2cc(F)c(O)c(O)c2Cl)C1=O)c1cccnc1 (stereo partly drawn) [Example 281, (3R)-3-(2-(2-chloro-5-fluoro-3,4-dihydroxyphenyl)-2-(3-(3-(nicotinamido)propyl)-2-oxoimidazolidine-1-carboxamido)acetamido)-7-fluoro-2-hydroxy-3,4-dihydro-2H-benzo[e][1,2]oxaborinine-8-carboxylic acid] | 10 to 50 | – | 2 to 4 (≈ 2.79 to 5.58 µM) | 8 to 16 (≈ 11.2 to 22.3 µM) | 4 to 8 (≈ 5.58 to 11.2 µM) | 16 to 32 (≈ 22.3 to 44.6 µM)
14 | O=C(O)c1c(F)ccc2c1OB(O)[C@@H](NC(=O)[C@@H](NC(=O)N1CCN(C3CCN(C(=O)Nc4ccc(O)cc4)CC3)C1=O)c1cc(F)c(O)c(O)c1Cl)C2 (single isomer, unassigned) [Example 467] | – | < 10 | < 1 | 2 to 4 (≈ 2.59 to 5.18 µM) | – | –
